{"source": "patent US7214506B2", "about": "“Method for treating onychomycosis” (Kaken Pharmaceutical Co., Ltd., priority 1999, dated 2007)", "key": {"[1]": {"system": "Trichophyton mentagrophytes SM-110 strain", "test": "Evaluation of drug effect on tinea pedis, guinea pig model, present evaluation method", "assay_type": "in vivo", "conditions": "two days after last treatment; 30 consecutive days; topical 1% solution 0.1 ml or oral 40 mg/kg; detection limit 20 CFU/feet", "experimental": "A fungal solution was prepared in the same manner as in the pretreatment of Comparative Example 1 except for changing Trichophyton mentagrophytes KD-04 strain to Trichophyton mentagrophytes SM-110 strain. A guinea pig model of tinea unguium and tinea pedis was prepared in the same manner as in the above-mentioned preparation of the guinea pig model in interdigital tinea pedis except for changing male Hartley strain guinea pigs of 7 weeks age to male Hartley strain guinea pigs of 5 weeks age and except that the paper disc and the bandage was removed 21 days after the infection changing from seven days after the infection. The invasion of dermatophytes in plantar skin and nail plate was observed 60 days after the infection. As test compounds, solutions were prepared by dissolving raw powders of KP-103, amorolfine and terbinafine in a concentration of 1% thereof to mixture solution of polyethylene grycole #400: ethanol (75:25 v/v), respectively. Capsule of terbinafine was prepared by crushing the marketed tablet, suspending in the concentration of 100 mg/ml into Miglyol 812 (available from Mitsuba trade Co., Ltd)with glass homogenizer uniformity, and injecting the resulting suspension into each capsule in the concentration of 40 mg/kg depending on body weight measured on administration day. A solution of KP-103, amorolfine or terbinafine in the amount of 0.1 ml was applied a plantar skin and nail of one foot once a day for 30 consecutive days. In case of terbinafine capsule, one capsule (40 mg/kg) was administered orally. Skin pieces of hind feet were excised from each animal described in Example 4. A removal of the drug and a determination of the remaining drug were carried out in the same as in Example 2 except that dialysis for removing the drug carried out for 3 days and that dialysis water was changed six times in total. The sufficient removal of the remaining drug was confirmed. Then the drug effect was evaluated in the same manner as in Example 4 (detection limit: 20 CFU/feet). Those results were shown in FIG. 4 and Table 4 thereof was made. In FIG. 4, the number of CFU in the skin in each treated group was plotted and the mean number of CFU was shown by horizontal line and numerical value."}, "[2]": {"system": "Trichophyton mentagrophytes SM-110 strain", "test": "Evaluation of drug effect on tinea unguium, guinea pig model, present evaluation method", "assay_type": "in vivo", "conditions": "two days after last treatment, 30 consecutive days, topical 1% solution 0.1 ml or oral 40 mg/kg; for The number of feet with fungus-negative nail/Total number of infected feet: detection limit 10 CFU/feet", "experimental": "A fungal solution was prepared in the same manner as in the pretreatment of Comparative Example 1 except for changing Trichophyton mentagrophytes KD-04 strain to Trichophyton mentagrophytes SM-110 strain.\nA guinea pig model of tinea unguium and tinea pedis was prepared in the same manner as in the above-mentioned preparation of the guinea pig model in interdigital tinea pedis except for changing male Hartley strain guinea pigs of 7 weeks age to male Hartley strain guinea pigs of 5 weeks age and except that the paper disc and the bandage was removed 21 days after the infection changing from seven days after the infection. The invasion of dermatophytes in plantar skin and nail plate was observed 60 days after the infection.\nAs test compounds, solutions were prepared by dissolving raw powders of KP-103, amorolfine and terbinafine in a concentration of 1% thereof to mixture solution of polyethylene grycole #400: ethanol (75:25 v/v), respectively. Capsule of terbinafine was prepared by crushing the marketed tablet, suspending in the concentration of 100 mg/ml into Miglyol 812 (available from Mitsuba trade Co., Ltd)with glass homogenizer uniformity, and injecting the resulting suspension into each capsule in the concentration of 40 mg/kg depending on body weight measured on administration day. A solution of KP-103, amorolfine or terbinafine in the amount of 0.1 ml was applied a plantar skin and nail of one foot once a day for 30 consecutive days. In case of terbinafine capsule, one capsule (40 mg/kg) was administered orally.\nAnimals were sacrificed two days after the last treatment. One hind foot was excised and wiped sufficiently with the cotton sweb containing alcohol. Nails (three in total) of one hind foot was excised and miced by a scissors. It was transferred into glass homogenizer and was homogenized adding 4 ml double-concentration phosphate buffered saline (Phosphate Buffered Salts, available from Takara Shuzo Co., Ltd.) containing 4% of trypsin derived from pig pancreas (available from BIOZYME Laboratories Limited). The reaction was carried out with shaking at 37° C. for one hour. After a centrifugation, the obtaining precipitate was washed three times by centrifuging with phosphate buffered saline in order to remove trypsin. The precipitate was suspended with 4 ml of distilled water and put into dialysis membrane (fractional molecular weight: 12,000–14,000, made of cellulose, available from VISKASE SALES Corporation). Dialysis was carried out into 3 L of distilled water at 4° C. for 14 days. Dialysis water was replaced twice a day 28 times in total. After a centrifugation, 1 ml of phosphate buffered saline was added to the precipitate obtained by removing the supernatant to prepare a suspension. This suspension was defined as stock solution and was diluted by tenfold. To Sabouraud dextrose agar medium (20 ml) containing the antibiotic substance described in Comparative Example 1 were added 100 μl of the stock solution or the dilution. […] The number of fungus-negative feet in the nail was counted. When the colony was appeared on the medium, the number of colonies (CFU) was counted to calculate the number of colonies in the nail of one foot by the dilution rate. After Kruskal Wallis Test was carried out for the number of fungi in the nail, the multiple comparison was carried out based on Tukey method to analysis the significant difference between groups. Those results were shown in FIG. 3 and Table 3 thereof was made. In FIG. 3, the number of CFU in nails in each treated group was plotted and the mean number of CFU was shown by horizontal line and numerical value.\nUsing the above-mentioned suspension, sufficient removal of the remaining drug was determined by the present evaluation method in the same manner as in Example 2."}, "[3]": {"system": "Trichophyton mentagrophytes KD-04 strain", "test": "Present evaluation method (drug removed by dialysis, viable fungus detected), guinea pig model of interdigital tinea pedis", "assay_type": "in vivo", "conditions": "five days after the last treatment; for The number of fungus-negative feet/Total number of infected feet, Present evaluation method: right feet, drug removed by dialysis, detection limit 10 CFU/feet", "experimental": "(§1) Millipore Filter (made by Millipore Corporation, HA, diameter 47 mm, 0.45 μm) was placed on Brain-Heart-infusion agar medium (available from Nissui Pharmaceutical Co., LTD.), and 10^6 cells of microcondium of Trichophyton mentagrophytes KD-04 strain were applied thereon. The cultivation was carried out at 30° C. under 17% of CO2 for 7 days. After the cultivation, just amount of physiological saline containing 0.05% of Tween 80 was dropped on the filter and arthroconidia were collected using a platinum loop. After a hyphal mass was removed by a filtration with a sterile gauze, the number of arthroconidia in the filtrate was calculated by hemocytometer to adjust in concentration of 1×10^8 arthroconidia/ml to obtain a fungal inocula.\n(§2) A guinea pig model of interdigital type of tinea pedis was prepared according to the method of Arika et al (Antimicrobial Agents and Chemotherapy, 36: 2523–2525, 1992). Concretely, in two hind foots of male Hartley strain guinea pigs of 7 weeks age, the interdigital skin was lightly abraded with sandpaper. A paper disc (AAdisc available from Whatmen International Ltd cut in 8×4 mm) moisten with the above-mentioned solution of the inoculated organism was applied onto the region between the interdigital toes of the hind feet and fixed using Self-adhering-Foam Pad (Restone 1560M; available from 3M) and adhesive stretch bandage (ELASTPORE; available from Nichiban Co., Ltd). The paper disc and the bandage were removed seven days after of the infection.\n(§3) A marketed 1% lanoconazole solution (commercial name: Astat (trade name) solution) and a solution in which KP-103 was solved in a concentration of 1% in polyethylene grycole #400: ethanol (75:25 v/v) mixture were used as test substance. Each solution in amount of 0.1 ml was applied to the plantar skin once a day from 10 days after the infection for 10 days.\nA model was prepared according to Comparative Example 1. Lanoconazole being a test compound was used for a therapeutic experience as 1% solution with the same vehicle as KP-103. […]"}, "fungus": {"system": "fungus", "conditions": "20 feet, cited from earlier work"}, "[4]": {"system": "Trichophyton mentagrophytes KD-04 strain", "test": "Conventional method for evaluating drug effect, guinea pig model of interdigital type of tinea pedis", "assay_type": "in vivo", "conditions": "for The number of fungus-negative feet/Total number of infected feet: 1% solution 0.1 ml topical once a day for 10 days, lanoconazole as marketed Astat solution; for The number of fungus-negative feet/Total number of infected feet, Conventional Method: five days after the last treatment, left feet, 1% solutions in PEG #400:ethanol vehicle", "experimental": "as §1, §2, §3\nThe conventional method was described as follows. For the infected control group without an application of the drug, the KP-103-treated group and the lanoconazole-treated group, 10 guinea pigs (hereinafter referred to “animal”) were employed, respectively. Animals of each group were sacrificed two days after and 30 days after the last treatment. Their two hind feet were excised and wiped with the cotton sweb containing alcohol sufficiently. A skin of whole sole was excised and cut into 15 skin pieces in total including 12 skin pieces from plantar parts and 3 skin pieces from an interdigital part. Each skin pieces were placed on 20 ml of Sabouraud dextrose agar medium (available from Difco laboratories) containing 50 μg of chloramphenicol (available from Wako Pure Chemical Industries, Ltd.), 100 μg of gentamicin (available from Schering-Plough Corporation), 50 μg of 5-fluorocytosine (available from Wako Pure Chemical Industries, Ltd.) and 1 mg of cycloheximide (available from nacalai tesque, Inc.) per ml. An antibiotic substance added to the medium was set to a condition which enable bacteria not to grow and which enable fungi to grow without problem. […] In the evaluation of the effect 30 days after last treatment, two days after the last treatment the treated feet were wiped with a cotton swab containing alcohol and fixed with the bandage in order to prevent a reinfection. The bandage was changed once a week.\nA model was prepared according to Comparative Example 1. Lanoconazole being a test compound was used for a therapeutic experience as 1% solution with the same vehicle as KP-103. For the infected control group without an application of a drug, the KP-103-treated group and the lanoconazole-treated group, 20 animals were employed, respectively. The two hind feet were excised from each animal five days after the last treatment in the same manner as in Comparative Example 1. A total of 20 light feet were used for an evaluation by the conventional method, and a total of 20 right feet were used in the present evaluation method. […]"}, "Trichophyton": {"system": "Trichophyton", "test": "In vitro antifungal activity against dermatophytes", "assay_type": "cell-based"}, "[5]": {"conditions": "30 days after the last treatment"}, "[6]": {"conditions": "two days after the last treatment"}}, "note": "Marks after values point to notes of the source that are not given here.", "data": [{"molecule": "CCC(C)(C)c1ccc(CC(C)CN2C[C@@H](C)O[C@@H](C)C2)cc1", "note": "(stereo partly shown) [Amorolfine solution, amorolfine]", "values": [{"measurement": "Mean number of fungal cells in the skin (Log CFU ± SD)", "setting": "[1]", "result": "1.74 ± 0.45", "unit": "Log CFU"}, {"measurement": "The number of feet with fungus-negative skin/Total number of infected feet", "setting": "[1]", "result": "4/10"}, {"measurement": "Mean number of fungal cells in the nail (Log CFU ± SD)", "setting": "[2]", "result": "3.26 ± 0.54", "unit": "Log CFU"}, {"measurement": "The number of feet with fungus-negative nail/Total number of infected feet", "setting": "[2]", "result": "0/10"}]}, {"molecule": "CN(C/C=C/C#CC(C)(C)C)Cc1cccc2ccccc12", "note": "[Terbinafine solution, terbinafine]", "values": [{"measurement": "Mean number of fungal cells in the skin (Log CFU ± SD)", "setting": "[1]", "result": "<1.3** Log CFU"}, {"measurement": "The number of feet with fungus-negative skin/Total number of infected feet", "setting": "[1]", "result": "10/10**"}, {"measurement": "Mean number of fungal cells in the nail (Log CFU ± SD)", "setting": "[2]", "result": "3.21 ± 0.47", "unit": "Log CFU"}, {"measurement": "The number of feet with fungus-negative nail/Total number of infected feet", "setting": "[2]", "result": "0/10"}]}, {"molecule": "N#C/C(=C1/SCC(c2ccccc2Cl)S1)n1ccnc1", "note": "(stereo not shown) [Lanoconazole, lanoconazole]", "values": [{"measurement": "The number of fungus-negative feet/Total number of infected feet, Present evaluation method", "setting": "[3]", "result": "3/20"}, {"measurement": "fungus-negative feet", "setting": "fungus; 2 days after the last treatment", "result": "all feet out of 20 feet"}, {"measurement": "feet with relapse", "setting": "fungus; [5]", "result": "11 out of 20"}, {"measurement": "The number of fungus-negative feet/Total number of infected feet", "setting": "[4]; [5]", "result": "9/20"}, {"measurement": "The number of fungus-negative feet/Total number of infected feet, Conventional Method", "setting": "[4]", "result": "20/20"}, {"measurement": "The number of fungus-negative feet/Total number of infected feet", "setting": "[4]; [6]", "result": "20/20"}, {"measurement": "growth inhibitory concentration against Trichophyton", "setting": "Trichophyton", "result": 15.6, "unit": "ng/mL"}, {"measurement": "in vitro activity against Trichophyton relative to KP-103", "setting": "Trichophyton", "result": "eight-fold more active than KP-103"}]}, {"molecule": "C=C1CCN([C@H](C)[C@](O)(Cn2cncn2)c2ccc(F)cc2F)CC1", "note": "[KP-103, (2R,3R)-2-(2,4-difluorophenyl)-3-(4-methylenepiperidine-1-yl)-1-(1H-1,2,4-triazole-1-yl)butane-2-ol]", "values": [{"measurement": "rate of a fungus-negative foot evaluated by the present evaluation method", "setting": "[3]", "result": 85, "unit": "%"}, {"measurement": "The number of fungus-negative feet/Total number of infected feet, Present evaluation method", "setting": "[3]", "result": "17/20"}, {"measurement": "The number of fungus-negative feet/Total number of infected feet", "setting": "[4]; [5]", "result": "16/20"}, {"measurement": "The number of fungus-negative feet/Total number of infected feet, Conventional Method", "setting": "[4]", "result": "19/20"}, {"measurement": "The number of fungus-negative feet/Total number of infected feet", "setting": "[4]; [6]", "result": "20/20"}, {"measurement": "Mean number of fungal cells in the skin (Log CFU ± SD)", "setting": "[1]", "result": "<1.3** Log CFU"}, {"measurement": "The number of feet with fungus-negative skin/Total number of infected feet", "setting": "[1]", "result": "10/10**"}, {"measurement": "Mean number of fungal cells in the nail (Log CFU ± SD)", "setting": "[2]", "result": "2.20 ± 0.56", "unit": "Log CFU"}, {"measurement": "The number of feet with fungus-negative nail/Total number of infected feet", "setting": "[2]", "result": "0/10"}]}]}
